The source of these data is BindingDB's records for doi:10.1016/j.bmcl.2007.06.023 (Merck Frosst Centre For Therapeutic Research, 2007).

Common to all, as to test: Enzyme Inhibition Assay
For test [1], the target named is T1, Cathepsin K (Oryctolagus cuniculus, UniProt P43236).
T1 sequence (P43236 whole entry): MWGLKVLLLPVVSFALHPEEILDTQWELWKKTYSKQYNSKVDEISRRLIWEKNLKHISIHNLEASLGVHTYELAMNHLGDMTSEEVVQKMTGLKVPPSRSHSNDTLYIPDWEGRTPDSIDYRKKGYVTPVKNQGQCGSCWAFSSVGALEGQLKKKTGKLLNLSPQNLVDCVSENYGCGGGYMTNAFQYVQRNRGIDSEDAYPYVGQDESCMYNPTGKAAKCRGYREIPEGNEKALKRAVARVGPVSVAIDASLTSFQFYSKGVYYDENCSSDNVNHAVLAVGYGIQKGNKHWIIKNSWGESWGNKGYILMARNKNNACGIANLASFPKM
How it is done:
(§1) Prior to the addition of substrate, different concentrations of the inhibitor ranging from 100 uM to 0.2 nM were preincubated for 15 min with enzyme to allow the establishment of the enzyme-inhibitor complex. The proteolytic cleavage of N-acyl aminocoumarins by cathepsins was conducted in 96-well plate format and the plate read using a Spectramax (Molecular Devices) plate reader. The excitation wavelength was 355 nm and the emission wavelength was 460 nm for peptidyl-AMC substrates. The percent inhibition of the reaction was calculated from a control reaction containing only vehicle. IC50 curves were generated by fitting percent inhibition values to a four parameter logistic model (SOFTMAX PRO, Molecular Devices).

The target in test [2] is Cathepsin S (Homo sapiens, UniProt P25774). As to conditions: pH 6.5; 22 °C. As to the method:
as §1

For test [3], the target named is Procathepsin L (Homo sapiens, UniProt P07711). How it is done:
as §1

Cathepsin S, sequence (P25774 whole entry): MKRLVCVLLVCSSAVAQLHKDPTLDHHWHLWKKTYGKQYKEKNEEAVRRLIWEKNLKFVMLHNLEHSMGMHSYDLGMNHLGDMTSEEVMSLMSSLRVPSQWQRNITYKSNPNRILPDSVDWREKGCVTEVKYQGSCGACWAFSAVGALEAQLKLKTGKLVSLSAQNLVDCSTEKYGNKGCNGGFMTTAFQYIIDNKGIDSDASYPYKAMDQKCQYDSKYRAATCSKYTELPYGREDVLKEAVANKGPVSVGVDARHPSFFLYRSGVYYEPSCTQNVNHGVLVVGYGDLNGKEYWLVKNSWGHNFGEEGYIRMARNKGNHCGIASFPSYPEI
Procathepsin L, sequence (P07711 whole entry): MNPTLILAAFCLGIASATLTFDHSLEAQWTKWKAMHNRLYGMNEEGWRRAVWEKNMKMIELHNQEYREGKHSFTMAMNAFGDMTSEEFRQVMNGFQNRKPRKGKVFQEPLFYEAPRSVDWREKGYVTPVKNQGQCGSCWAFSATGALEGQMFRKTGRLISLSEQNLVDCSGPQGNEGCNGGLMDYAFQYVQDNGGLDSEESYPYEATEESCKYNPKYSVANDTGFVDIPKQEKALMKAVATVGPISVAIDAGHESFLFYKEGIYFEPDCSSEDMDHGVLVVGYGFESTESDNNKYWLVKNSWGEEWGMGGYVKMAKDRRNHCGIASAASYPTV

For `CC(C)C[C@@H](NC(=O)N1CCOCC1)C(=O)N[C@@H](C=CS(=O)(=O)c1ccccc1)CCc1ccccc1`, the IC50 (in general, the concentration that gives 50% inhibition) came to 6.2 nM in test [1] and 1.2 nM in test [2]. `CC(C)(c1ccc(F)cc1)S(=O)(=O)C[C@H](N[C@@H](c1ccc(F)cc1)C(F)(F)F)C(=O)NC1(C#N)CC1` [(2R)-N-(1-cyanocyclopropyl)-3-{[2-(4-fluorophenyl)propane-2-]sulfonyl}-2-{[(1S)-2,2,2-trifluoro-1-(4-fluorophenyl)ethyl]amino}propanamide] displayed an IC50 in test [1] above 10000 nM. Molecule `N#CC1(NC(=O)[C@H](CS(=O)(=O)Cc2cccc(F)c2F)N[C@@H](c2ccc(F)cc2)C(F)(F)F)CC1` [(2R)-N-(1-cyanocyclopropyl)-3-{[(2,3-difluorophenyl)methane]sulfonyl}-2-{[(1S)-2,2,2-trifluoro-1-(4-fluorophenyl)ethyl]amino}propanamide] yielded an IC50 in test [1] above 10000 nM. For the molecule `N#CC1(NC(=O)[C@H](CS(=O)(=O)Cc2cccc(F)c2F)N[C@@H](c2ccccc2)C(F)(F)F)CC1` [(2R)-N-(1-cyanocyclopropyl)-3-{[(2,3-difluorophenyl)methane]sulfonyl}-2-{[(1S)-2,2,2-trifluoro-1-phenylethyl]amino}propanamide], the IC50 in test [1] is above 10000 nM.

Take `N#CC1(NC(=O)[C@H](CS(=O)(=O)Cc2c(Cl)cccc2Cl)N[C@@H](c2ccc(F)cc2)C(F)(F)F)CC1` [(2R)-N-(1-cyanocyclopropyl)-3-{[(2,6-dichlorophenyl)methane]sulfonyl}-2-{[(1S)-2,2,2-trifluoro-1-(4-fluorophenyl)ethyl]amino}propanamide]: the IC50 in test [1] is above 10000 nM; in test [2] it was 0.7 nM; in test [3], 249 nM. In turn, `N#CC1(NC(=O)[C@H](CS(=O)(=O)Cc2ccccc2-c2ccccc2)N[C@@H](c2ccc(F)cc2)C(F)(F)F)CC1` [(2R)-N-(1-cyanocyclopropyl)-3-{[(2-phenylphenyl)methane]sulfonyl}-2-{[(1S)-2,2,2-trifluoro-1-(4-fluorophenyl)ethyl]amino}propanamide] gave a half-maximal inhibitory concentration (IC50) in test [1] above 10000 nM.

Turning to `N#CC1(NC(=O)[C@H](CS(=O)(=O)Cc2ccc(F)cc2)N[C@@H](c2ccccc2)C(F)(F)F)CC1` [(2R)-N-(1-cyanocyclopropyl)-3-{[(4-fluorophenyl)methane]sulfonyl}-2-{[(1S)-2,2,2-trifluoro-1-phenylethyl]amino}propanamide], the IC50 in test [1] is above 10000 nM.
